Active and inactive are the calls of the source. Cut-off read from the data, not from the text of the source, for most assays here: actives have a measured Kd and inactives only a lower limit.
Tests used:
GTP-binding protein 4 = GTP-binding protein 4 (Homo sapiens, UniProt Q9BZE4)
ADP/ATP translocase 2 = target: T1, ADP/ATP translocase 2 (Homo sapiens, UniProt P05141)
T1 sequence (P05141 whole entry): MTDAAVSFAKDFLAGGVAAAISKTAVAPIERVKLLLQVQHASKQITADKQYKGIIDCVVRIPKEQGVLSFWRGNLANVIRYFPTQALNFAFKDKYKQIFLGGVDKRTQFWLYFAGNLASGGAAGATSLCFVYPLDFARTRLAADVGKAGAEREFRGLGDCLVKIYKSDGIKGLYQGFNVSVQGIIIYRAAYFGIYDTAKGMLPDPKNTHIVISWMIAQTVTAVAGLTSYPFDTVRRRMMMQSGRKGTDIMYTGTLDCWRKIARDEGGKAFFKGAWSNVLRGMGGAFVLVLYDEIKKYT

[1] = target: GTP-binding nuclear protein Ran (Homo sapiens, UniProt P62826)
Midasin = Midasin (Homo sapiens, UniProt Q9NU22)
[2] = target: T2, Phosphorylase b kinase gamma catalytic chain, liver/testis isoform (Homo sapiens, UniProt P15735)
T2 sequence (P15735 whole entry): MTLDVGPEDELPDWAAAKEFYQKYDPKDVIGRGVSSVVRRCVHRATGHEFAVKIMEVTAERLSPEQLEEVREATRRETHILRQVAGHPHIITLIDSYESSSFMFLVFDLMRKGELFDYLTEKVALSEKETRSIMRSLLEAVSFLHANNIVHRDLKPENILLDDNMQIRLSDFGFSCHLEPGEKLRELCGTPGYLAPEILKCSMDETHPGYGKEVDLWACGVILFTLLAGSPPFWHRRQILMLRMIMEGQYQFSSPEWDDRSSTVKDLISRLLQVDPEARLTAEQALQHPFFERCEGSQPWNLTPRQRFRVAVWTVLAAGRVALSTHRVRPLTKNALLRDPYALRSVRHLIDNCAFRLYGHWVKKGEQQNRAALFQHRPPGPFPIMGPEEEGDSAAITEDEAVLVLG

[3] = target: T3, Discoidin domain-containing receptor 2 (Homo sapiens, UniProt Q16832)
T3 sequence (Q16832 whole entry): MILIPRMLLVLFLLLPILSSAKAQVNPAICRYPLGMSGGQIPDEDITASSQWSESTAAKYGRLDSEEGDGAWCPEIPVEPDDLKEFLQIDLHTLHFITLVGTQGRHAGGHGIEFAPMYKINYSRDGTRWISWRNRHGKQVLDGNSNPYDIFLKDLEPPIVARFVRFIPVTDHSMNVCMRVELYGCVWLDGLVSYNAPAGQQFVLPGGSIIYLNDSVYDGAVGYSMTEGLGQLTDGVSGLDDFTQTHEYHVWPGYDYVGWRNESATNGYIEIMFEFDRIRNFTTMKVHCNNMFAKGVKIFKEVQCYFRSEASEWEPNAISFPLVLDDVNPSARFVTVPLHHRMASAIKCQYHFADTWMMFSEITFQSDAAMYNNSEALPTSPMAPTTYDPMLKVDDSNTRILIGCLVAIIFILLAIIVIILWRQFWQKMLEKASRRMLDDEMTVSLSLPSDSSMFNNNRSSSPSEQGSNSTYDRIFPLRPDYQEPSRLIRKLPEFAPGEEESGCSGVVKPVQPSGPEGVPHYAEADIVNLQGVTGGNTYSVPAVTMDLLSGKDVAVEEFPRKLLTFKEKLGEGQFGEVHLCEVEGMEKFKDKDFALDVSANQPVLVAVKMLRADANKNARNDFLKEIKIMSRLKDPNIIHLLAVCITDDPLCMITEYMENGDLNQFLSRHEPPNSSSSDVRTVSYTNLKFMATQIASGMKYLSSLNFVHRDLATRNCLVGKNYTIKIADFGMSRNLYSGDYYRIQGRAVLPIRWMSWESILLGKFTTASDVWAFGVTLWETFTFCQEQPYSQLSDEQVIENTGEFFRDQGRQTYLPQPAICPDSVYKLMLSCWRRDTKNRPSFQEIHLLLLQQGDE

[4] = target: Serine/threonine-protein kinase N1 (Homo sapiens, UniProt Q16512)
Serine/threonine-protein kinase N1, sequence (Q16512 whole entry): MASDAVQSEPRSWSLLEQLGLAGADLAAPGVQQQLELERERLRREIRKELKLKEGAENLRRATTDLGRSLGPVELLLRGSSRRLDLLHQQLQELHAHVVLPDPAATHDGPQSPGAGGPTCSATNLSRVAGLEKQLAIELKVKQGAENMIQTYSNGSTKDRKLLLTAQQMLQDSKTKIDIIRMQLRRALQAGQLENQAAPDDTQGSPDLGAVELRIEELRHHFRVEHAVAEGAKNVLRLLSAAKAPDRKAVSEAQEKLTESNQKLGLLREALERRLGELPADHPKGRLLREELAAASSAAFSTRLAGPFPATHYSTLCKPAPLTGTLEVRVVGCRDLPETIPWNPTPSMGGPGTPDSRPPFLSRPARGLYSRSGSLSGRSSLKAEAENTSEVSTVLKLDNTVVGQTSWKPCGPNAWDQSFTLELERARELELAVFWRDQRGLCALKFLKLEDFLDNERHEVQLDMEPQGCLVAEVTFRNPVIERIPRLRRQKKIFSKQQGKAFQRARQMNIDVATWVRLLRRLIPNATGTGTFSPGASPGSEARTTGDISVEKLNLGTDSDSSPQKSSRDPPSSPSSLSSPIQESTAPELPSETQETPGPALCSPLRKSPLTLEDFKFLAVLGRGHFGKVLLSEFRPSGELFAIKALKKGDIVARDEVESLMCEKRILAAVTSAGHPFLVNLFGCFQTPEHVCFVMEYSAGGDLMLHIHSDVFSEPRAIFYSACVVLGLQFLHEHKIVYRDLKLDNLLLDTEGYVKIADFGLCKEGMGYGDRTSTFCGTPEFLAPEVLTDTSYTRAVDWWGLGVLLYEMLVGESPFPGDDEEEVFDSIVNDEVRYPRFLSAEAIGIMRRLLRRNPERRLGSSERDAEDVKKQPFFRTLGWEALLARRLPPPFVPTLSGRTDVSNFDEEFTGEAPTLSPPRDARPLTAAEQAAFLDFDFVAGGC

[5] = target: T4, Serine/threonine-protein kinase Nek2 (Homo sapiens, UniProt P51955)
T4 sequence (P51955 whole entry): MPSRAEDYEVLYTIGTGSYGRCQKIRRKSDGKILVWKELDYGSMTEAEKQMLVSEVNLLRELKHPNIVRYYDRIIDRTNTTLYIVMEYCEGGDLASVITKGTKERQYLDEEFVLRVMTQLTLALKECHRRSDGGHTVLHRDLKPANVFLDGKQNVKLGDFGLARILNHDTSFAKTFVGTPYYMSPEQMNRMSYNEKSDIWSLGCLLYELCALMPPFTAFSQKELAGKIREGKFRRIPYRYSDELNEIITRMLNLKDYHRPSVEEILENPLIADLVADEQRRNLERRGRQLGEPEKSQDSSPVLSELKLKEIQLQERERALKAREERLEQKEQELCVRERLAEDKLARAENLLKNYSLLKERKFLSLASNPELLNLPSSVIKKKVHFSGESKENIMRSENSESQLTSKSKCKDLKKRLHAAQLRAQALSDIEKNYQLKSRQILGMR

[6] = target: Cyclin-dependent kinase 13 (Homo sapiens, UniProt Q14004)
Cyclin-dependent kinase 13, sequence (Q14004 whole entry): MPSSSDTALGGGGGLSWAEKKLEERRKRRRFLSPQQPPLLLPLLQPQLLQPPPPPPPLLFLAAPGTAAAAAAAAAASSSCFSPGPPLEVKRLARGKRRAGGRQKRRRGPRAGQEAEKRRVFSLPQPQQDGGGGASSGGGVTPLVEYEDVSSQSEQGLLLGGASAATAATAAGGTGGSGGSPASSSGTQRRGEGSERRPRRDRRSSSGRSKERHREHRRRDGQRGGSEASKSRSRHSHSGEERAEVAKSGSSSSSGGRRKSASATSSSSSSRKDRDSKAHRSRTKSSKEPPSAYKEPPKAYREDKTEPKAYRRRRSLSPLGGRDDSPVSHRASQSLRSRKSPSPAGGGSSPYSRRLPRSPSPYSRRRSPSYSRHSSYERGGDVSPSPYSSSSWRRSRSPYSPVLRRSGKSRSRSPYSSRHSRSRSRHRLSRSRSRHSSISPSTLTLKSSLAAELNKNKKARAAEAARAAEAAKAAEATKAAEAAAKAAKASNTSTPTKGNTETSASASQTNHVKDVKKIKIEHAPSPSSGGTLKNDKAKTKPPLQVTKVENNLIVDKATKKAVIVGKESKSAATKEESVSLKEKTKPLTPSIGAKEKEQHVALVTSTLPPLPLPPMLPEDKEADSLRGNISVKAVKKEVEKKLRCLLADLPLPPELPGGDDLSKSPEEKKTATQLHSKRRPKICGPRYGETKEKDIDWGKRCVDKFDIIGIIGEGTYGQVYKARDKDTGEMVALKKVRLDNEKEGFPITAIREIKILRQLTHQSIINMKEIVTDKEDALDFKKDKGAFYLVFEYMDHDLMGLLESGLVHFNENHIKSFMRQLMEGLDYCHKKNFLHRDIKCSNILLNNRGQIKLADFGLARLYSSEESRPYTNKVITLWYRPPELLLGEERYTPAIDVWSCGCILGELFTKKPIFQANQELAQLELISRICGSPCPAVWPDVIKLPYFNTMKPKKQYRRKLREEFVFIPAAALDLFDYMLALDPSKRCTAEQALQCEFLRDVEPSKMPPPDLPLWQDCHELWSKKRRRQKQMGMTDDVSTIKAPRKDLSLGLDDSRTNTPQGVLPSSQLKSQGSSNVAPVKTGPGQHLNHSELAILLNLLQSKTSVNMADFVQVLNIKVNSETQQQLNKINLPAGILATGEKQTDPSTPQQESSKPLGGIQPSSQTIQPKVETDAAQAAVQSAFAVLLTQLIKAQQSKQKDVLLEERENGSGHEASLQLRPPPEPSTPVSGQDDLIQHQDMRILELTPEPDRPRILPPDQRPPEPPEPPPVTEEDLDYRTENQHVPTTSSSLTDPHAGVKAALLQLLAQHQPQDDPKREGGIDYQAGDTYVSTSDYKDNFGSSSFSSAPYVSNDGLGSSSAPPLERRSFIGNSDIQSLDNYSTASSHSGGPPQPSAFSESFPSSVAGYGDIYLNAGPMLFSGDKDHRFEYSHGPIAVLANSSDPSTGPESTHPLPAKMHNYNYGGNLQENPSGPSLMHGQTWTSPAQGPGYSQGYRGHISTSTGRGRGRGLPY

TGF-beta receptor type-1 = target: T5, TGF-beta receptor type-1 (Homo sapiens, UniProt P36897)
T5 sequence (P36897 whole entry): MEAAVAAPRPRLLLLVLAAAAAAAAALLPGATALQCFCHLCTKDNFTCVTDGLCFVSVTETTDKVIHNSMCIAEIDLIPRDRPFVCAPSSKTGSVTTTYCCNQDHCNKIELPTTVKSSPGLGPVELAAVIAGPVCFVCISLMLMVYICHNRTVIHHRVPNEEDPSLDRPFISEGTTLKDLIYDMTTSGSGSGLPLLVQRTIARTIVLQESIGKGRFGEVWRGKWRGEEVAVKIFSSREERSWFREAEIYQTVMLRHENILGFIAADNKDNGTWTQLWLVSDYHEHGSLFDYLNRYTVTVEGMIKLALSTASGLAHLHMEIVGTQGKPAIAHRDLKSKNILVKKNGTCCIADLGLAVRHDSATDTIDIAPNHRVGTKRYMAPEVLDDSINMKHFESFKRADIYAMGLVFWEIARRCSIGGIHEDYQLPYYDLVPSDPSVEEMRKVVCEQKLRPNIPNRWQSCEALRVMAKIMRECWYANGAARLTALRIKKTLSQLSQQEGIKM

Activated CDC42 kinase 1 = Activated CDC42 kinase 1 (Homo sapiens, UniProt Q07912)
Activated CDC42 kinase 1, sequence (Q07912 whole entry): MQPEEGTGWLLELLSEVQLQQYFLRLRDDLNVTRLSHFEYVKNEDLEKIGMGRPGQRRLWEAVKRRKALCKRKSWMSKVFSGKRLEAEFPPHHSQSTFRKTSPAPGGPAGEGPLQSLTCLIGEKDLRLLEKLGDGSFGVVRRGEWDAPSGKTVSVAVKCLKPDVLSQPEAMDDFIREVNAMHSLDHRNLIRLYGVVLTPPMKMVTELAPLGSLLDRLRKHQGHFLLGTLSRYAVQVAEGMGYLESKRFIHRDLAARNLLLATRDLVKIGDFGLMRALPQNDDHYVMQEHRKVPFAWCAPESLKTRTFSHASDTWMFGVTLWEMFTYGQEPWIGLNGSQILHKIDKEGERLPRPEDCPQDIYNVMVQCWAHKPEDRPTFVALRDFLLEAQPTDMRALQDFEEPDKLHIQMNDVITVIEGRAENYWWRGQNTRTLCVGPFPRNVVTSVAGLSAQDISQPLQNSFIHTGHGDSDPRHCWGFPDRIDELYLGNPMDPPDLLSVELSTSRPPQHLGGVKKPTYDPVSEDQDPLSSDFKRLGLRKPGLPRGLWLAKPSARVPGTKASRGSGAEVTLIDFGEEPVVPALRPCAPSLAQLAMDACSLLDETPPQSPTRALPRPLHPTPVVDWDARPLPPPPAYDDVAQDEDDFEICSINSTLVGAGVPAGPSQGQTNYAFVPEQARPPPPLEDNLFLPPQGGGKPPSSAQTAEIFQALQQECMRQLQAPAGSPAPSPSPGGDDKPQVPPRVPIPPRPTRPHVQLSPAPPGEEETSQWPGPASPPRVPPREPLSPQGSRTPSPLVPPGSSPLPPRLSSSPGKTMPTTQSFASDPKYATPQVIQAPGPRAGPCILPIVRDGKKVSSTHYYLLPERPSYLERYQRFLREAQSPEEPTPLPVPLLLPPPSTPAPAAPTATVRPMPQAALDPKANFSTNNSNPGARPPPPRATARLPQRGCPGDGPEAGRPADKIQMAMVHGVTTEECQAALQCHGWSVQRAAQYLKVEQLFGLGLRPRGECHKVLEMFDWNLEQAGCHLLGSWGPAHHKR
Note: in the data inactive means no Kd found up to 30 µM.

| SMILES | Kd (GTP-binding protein 4) | Kd (ADP/ATP translocase 2) | Kd [1] | Kd (Midasin) | Kd [2] | Kd [3] | Kd [4] | Kd [5] | Kd [6] | Kd (TGF-beta receptor type-1) | Kd (Activated CDC42 kinase 1) |
| --- | --- | --- | --- | --- | --- | --- | --- | --- | --- | --- | --- |
| Cn1cc(C2=C(c3cn(C4CCN(Cc5ccccn5)CC4)c4ccccc34)C(=O)NC2=O)c2ccccc21 [ENZASTAURIN] | > 30 µM (inactive) | > 30 µM (inactive) | > 30 µM (inactive) | > 30 µM (inactive) |  |  |  |  |  |  |  |
| CN(C[C@@H]1COCCO1)S(=O)(=O)Nc1ccc2ccc3ncc(-c4cnn(C)c4)cc3c(=O)c2c1 [MK-2461] | > 30 µM (inactive) | > 30 µM (inactive) | > 30 µM (inactive) | > 30 µM (inactive) | > 30 µM (inactive) | > 30 µM (inactive) | > 30 µM (inactive) | > 30 µM (inactive) | > 30 µM (inactive) | > 30 µM (inactive) | > 30 µM (inactive) |
| Cc1cc(Nc2ncc(Cl)c(Nc3ccccc3S(=O)(=O)C(C)C)n2)c(OC(C)C)cc1C1CCNCC1 [CERITINIB] | > 30 µM (inactive) | > 30 µM (inactive) | > 30 µM (inactive) | > 30 µM (inactive) | > 30 µM (inactive) | > 30 µM (inactive) | > 30 µM (inactive) | > 30 µM (inactive) | > 30 µM (inactive) | > 30 µM (inactive) | 0.929 µM (active) |
| Cc1nc2cc(-n3ncc(C(=O)c4cc5ccccc5[nH]4)c3N)ccc2[nH]1 [FGFR INHIBITOR DEBIO 1347] | > 30 µM (inactive) | > 30 µM (inactive) | > 30 µM (inactive) | > 30 µM (inactive) | > 30 µM (inactive) | > 30 µM (inactive) | > 30 µM (inactive) | > 30 µM (inactive) | > 30 µM (inactive) | > 30 µM (inactive) | > 30 µM (inactive) |
| CCNC(=O)C#Cc1ccc2c(c1)NC(=O)/C2=C(\Nc1ccc(CN(C)C)cc1)c1ccccc1 |  | > 30 µM (inactive) | > 30 µM (inactive) | 1.32 µM | > 30 µM (inactive) |  | > 30 µM (inactive) | > 30 µM (inactive) | > 30 µM (inactive) | > 30 µM (inactive) | 1.55 µM (active) |
| O=C(Nc1cc(C(F)(F)F)cc(C(F)(F)F)c1)c1cc(Cl)ccc1O [IMD-0354] | > 30 µM (inactive) | > 30 µM (inactive) | > 30 µM (inactive) | > 30 µM (inactive) | > 30 µM (inactive) | > 30 µM (inactive) | > 30 µM (inactive) |  | > 30 µM (inactive) | > 30 µM (inactive) | > 30 µM (inactive) |

— ChEMBL document CHEMBL3991601, “The target landscape of clinical kinase drugs” (Science, 2017)
